Measurements published in ChEMBL document CHEMBL1147199, “Exploration of the correlation between the structure, hemolytic activity, and cytotoxicity of steroid saponins” (Bioorg Med Chem, 2007).

assay: Cytotoxicity against human erythrocytes assessed as hemolytic activity after 60 mins; format: cell-based, Erythrocyte; details: read-out: HD50

Row | SMILES | HC50 at 1 h
1 | C[C@@H]1CC[C@@]2(OC1)O[C@H]1C[C@H]3[C@@H]4CC=C5C[C@@H](O[C@@H]6O[C@H](CNC(=O)COc7ccc(Cl)cc7)[C@@H](O[C@H]7O[C@H](C)[C@@H](O)[C@H](O)[C@@H]7O)[C@H](O)[C@H]6O[C@H]6O[C@H](C)[C@@H](O)[C@H](O)[C@@H]6O)CC[C@]5(C)[C@H]4CC[C@]3(C)[C@H]1[C@@H]2C | 9.4 µM
2 | C[C@@H]1CC[C@@]2(OC1)O[C@H]1C[C@H]3[C@@H]4CC=C5C[C@@H](O[C@@H]6O[C@H](CN)[C@@H](O[C@H]7O[C@H](C)[C@@H](O)[C@H](O)[C@@H]7O)[C@H](O)[C@H]6O[C@H]6O[C@H](C)[C@@H](O)[C@H](O)[C@@H]6O)CC[C@]5(C)[C@H]4CC[C@]3(C)[C@H]1[C@@H]2C | 24.8 µM
3 | C[C@@H]1CC[C@@]2(OC1)O[C@H]1C[C@H]3[C@@H]4CC=C5C[C@@H](O[C@@H]6O[C@H](CNS(=O)(=O)c7cccc8c(N(C)C)cccc78)[C@@H](O[C@H]7O[C@H](C)[C@@H](O)[C@H](O)[C@@H]7O)[C@H](O)[C@H]6O[C@H]6O[C@H](C)[C@@H](O)[C@H](O)[C@@H]6O)CC[C@]5(C)[C@H]4CC[C@]3(C)[C@H]1[C@@H]2C | 6.9 µM
4 | C[C@@H]1CC[C@@]2(OC1)O[C@H]1C[C@H]3[C@@H]4CC=C5C[C@@H](O[C@@H]6O[C@H](CO)[C@@H](O[C@H]7O[C@H](C)[C@@H](OCCNC(=O)COc8ccccc8)[C@H](O)[C@@H]7O)[C@H](O)[C@H]6O[C@H]6O[C@H](C)[C@@H](O)[C@H](O)[C@@H]6O)CC[C@]5(C)[C@H]4CC[C@]3(C)[C@H]1[C@@H]2C | 7.6 µM
5 | C[C@@H]1CC[C@@]2(OC1)O[C@H]1C[C@H]3[C@@H]4CC=C5C[C@@H](O[C@@H]6O[C@H](CO)[C@@H](O[C@H]7O[C@H](C)[C@@H](OCCNS(=O)(=O)c8cccc9c(N(C)C)cccc89)[C@H](O)[C@@H]7O)[C@H](O)[C@H]6O[C@H]6O[C@H](C)[C@@H](O)[C@H](O)[C@@H]6O)CC[C@]5(C)[C@H]4CC[C@]3(C)[C@H]1[C@@H]2C | 1.3 µM
6 | C[C@@H]1CC[C@@]2(OC1)O[C@H]1C[C@H]3[C@@H]4CC=C5C[C@@H](O[C@@H]6O[C@H](CNC(=O)OCC7c8ccccc8-c8ccccc87)[C@@H](O[C@H]7O[C@H](C)[C@@H](O)[C@H](O)[C@@H]7O)[C@H](O)[C@H]6O[C@H]6O[C@H](C)[C@@H](O)[C@H](O)[C@@H]6O)CC[C@]5(C)[C@H]4CC[C@]3(C)[C@H]1[C@@H]2C | 9 µM
7 | CC(=O)NC[C@H]1O[C@@H](O[C@H]2CC[C@@]3(C)C(=CC[C@H]4[C@@H]5C[C@@H]6O[C@]7(CC[C@@H](C)CO7)[C@@H](C)[C@@H]6[C@@]5(C)CC[C@@H]43)C2)[C@H](O[C@H]2O[C@H](C)[C@@H](O)[C@H](O)[C@@H]2O)[C@@H](O)[C@@H]1O[C@H]1O[C@H](C)[C@@H](O)[C@H](O)[C@@H]1O | > 50 µg/mL
8 | C[C@@H]1CC[C@@]2(OC1)O[C@H]1C[C@H]3[C@@H]4CC=C5C[C@@H](O[C@@H]6O[C@H](CO[C@@H]7O[C@@H](C)[C@H](O)[C@@H](O)[C@H]7O)[C@@H](O)[C@H](O)[C@H]6O)CC[C@]5(C)[C@H]4CC[C@]3(C)[C@H]1[C@@H]2C | 28.6 µM
9 | COc1ccc(C(=O)NC[C@H]2O[C@@H](O[C@H]3CC[C@@]4(C)C(=CC[C@H]5[C@@H]6C[C@@H]7O[C@]8(CC[C@@H](C)CO8)[C@@H](C)[C@@H]7[C@@]6(C)CC[C@@H]54)C3)[C@H](O[C@H]3O[C@H](C)[C@@H](O)[C@H](O)[C@@H]3O)[C@@H](O)[C@@H]2O[C@H]2O[C@H](C)[C@@H](O)[C@H](O)[C@@H]2O)cc1 | 9.5 µM
10 | CCCCCCCCCCCCCC(=O)NC[C@H]1O[C@@H](O[C@H]2CC[C@@]3(C)C(=CC[C@H]4[C@@H]5C[C@@H]6O[C@]7(CC[C@@H](C)CO7)[C@@H](C)[C@@H]6[C@@]5(C)CC[C@@H]43)C2)[C@H](O[C@H]2O[C@H](C)[C@@H](O)[C@H](O)[C@@H]2O)[C@@H](O)[C@@H]1O[C@H]1O[C@H](C)[C@@H](O)[C@H](O)[C@@H]1O | > 50 µg/mL
11 | C[C@@H]1CC[C@@]2(OC1)O[C@H]1C[C@H]3[C@@H]4CC=C5C[C@@H](O[C@@H]6O[C@H](CO)[C@@H](O[C@H]7O[C@H](CO)[C@@H](O)[C@@H]7O)[C@H](O)[C@H]6O[C@H]6O[C@H](C)[C@@H](O)[C@H](O)[C@@H]6O)CC[C@]5(C)[C@H]4CC[C@]3(C)[C@H]1[C@@H]2C [POLYPHILLIN D] | 3.9 µM
12 | C[C@@H]1CC[C@@]2(OC1)O[C@H]1C[C@H]3[C@@H]4CC=C5C[C@@H](O[C@@H]6O[C@H](CO)[C@@H](O[C@H]7O[C@H](C)[C@@H](OCCNC(=O)c8ccc([N+](=O)[O-])cc8)[C@H](O)[C@@H]7O)[C@H](O)[C@H]6O[C@H]6O[C@H](C)[C@@H](O)[C@H](O)[C@@H]6O)CC[C@]5(C)[C@H]4CC[C@]3(C)[C@H]1[C@@H]2C | 4.9 µM
13 | CCCCCCCCCC(=O)O[C@H]1C[C@@H]2[C@H](CC[C@]3(C)[C@@H]4[C@H](C[C@@H]23)O[C@]2(CC[C@@H](C)CO2)[C@H]4C)[C@@]2(C)C[C@@H](O)[C@H](O[C@@H]3O[C@H](CO)[C@@H](O[C@H]4O[C@H](C)[C@@H](O)[C@H](O)[C@@H]4O)[C@H](O)[C@H]3O[C@H]3O[C@H](C)[C@@H](O)[C@H](O)[C@@H]3O)C[C@H]12 | 6.7 µM
14 | C[C@@H]1CC[C@@]2(OC1)O[C@H]1C[C@H]3[C@@H]4CC=C5C[C@@H](O[C@@H]6O[C@H](CO)[C@@H](O[C@H]7O[C@H](C)[C@@H](OCCNC(=O)/C=C/c8ccccc8)[C@H](O)[C@@H]7O)[C@H](O)[C@H]6O[C@H]6O[C@H](C)[C@@H](O)[C@H](O)[C@@H]6O)CC[C@]5(C)[C@H]4CC[C@]3(C)[C@H]1[C@@H]2C | 1.5 µM
15 | C[C@@H]1CC[C@@]2(OC1)O[C@H]1C[C@H]3[C@@H]4CC=C5C[C@@H](O[C@@H]6O[C@H](CN=[N+]=[N-])[C@@H](O[C@H]7O[C@H](C)[C@@H](O)[C@H](O)[C@@H]7O)[C@H](O)[C@H]6O[C@H]6O[C@H](C)[C@@H](O)[C@H](O)[C@@H]6O)CC[C@]5(C)[C@H]4CC[C@]3(C)[C@H]1[C@@H]2C | > 50 µg/mL
16 | C[C@@H]1CC[C@@]2(OC1)O[C@H]1C[C@H]3[C@@H]4CC=C5C[C@@H](O[C@@H]6O[C@H](CNC(=O)c7ccccc7)[C@@H](O[C@H]7O[C@H](C)[C@@H](O)[C@H](O)[C@@H]7O)[C@H](O)[C@H]6O[C@H]6O[C@H](C)[C@@H](O)[C@H](O)[C@@H]6O)CC[C@]5(C)[C@H]4CC[C@]3(C)[C@H]1[C@@H]2C | 10.7 µM
17 | C[C@@H]1CC[C@@]2(OC1)O[C@H]1C[C@H]3[C@@H]4CC[C@H]5C[C@@H](O[C@@H]6O[C@H](CO)[C@@H](O[C@H]7O[C@H](C)[C@@H](O)[C@H](O)[C@@H]7O)[C@H](O)[C@H]6O[C@H]6O[C@H](C)[C@@H](O)[C@H](O)[C@@H]6O)[C@H](O)C[C@]5(C)[C@H]4CC[C@]3(C)[C@H]1[C@@H]2C | 13.1 µM
18 | C[C@@H]1CC[C@@]2(OC1)O[C@H]1C[C@H]3[C@@H]4CC=C5C[C@@H](O[C@@H]6O[C@H](CNC(=O)COc7ccccc7)[C@@H](O[C@H]7O[C@H](C)[C@@H](O)[C@H](O)[C@@H]7O)[C@H](O)[C@H]6O[C@H]6O[C@H](C)[C@@H](O)[C@H](O)[C@@H]6O)CC[C@]5(C)[C@H]4CC[C@]3(C)[C@H]1[C@@H]2C | 9.4 µM
19 | COc1ccc(C(=O)NCCO[C@H]2[C@H](O)[C@H](O)[C@@H](O[C@H]3[C@H](O)[C@@H](O[C@H]4O[C@H](C)[C@@H](O)[C@H](O)[C@@H]4O)[C@H](O[C@H]4CC[C@@]5(C)C(=CC[C@H]6[C@@H]7C[C@@H]8O[C@]9(CC[C@@H](C)CO9)[C@@H](C)[C@@H]8[C@@]7(C)CC[C@@H]65)C4)O[C@@H]3CO)O[C@@H]2C)cc1 | 4.5 µM
20 | C=CCCCCCCCCC(=O)NC[C@H]1O[C@@H](O[C@H]2CC[C@@]3(C)C(=CC[C@H]4[C@@H]5C[C@@H]6O[C@]7(CC[C@@H](C)CO7)[C@@H](C)[C@@H]6[C@@]5(C)CC[C@@H]43)C2)[C@H](O[C@H]2O[C@H](C)[C@@H](O)[C@H](O)[C@@H]2O)[C@@H](O)[C@@H]1O[C@H]1O[C@H](C)[C@@H](O)[C@H](O)[C@@H]1O | > 50 µg/mL
21 | C[C@@H]1CC[C@@]2(OC1)O[C@H]1C[C@H]3[C@@H]4CC=C5C[C@@H](O[C@@H]6O[C@H](CNC(=O)CCCCl)[C@@H](O[C@H]7O[C@H](C)[C@@H](O)[C@H](O)[C@@H]7O)[C@H](O)[C@H]6O[C@H]6O[C@H](C)[C@@H](O)[C@H](O)[C@@H]6O)CC[C@]5(C)[C@H]4CC[C@]3(C)[C@H]1[C@@H]2C | 20.9 µM
22 | C[C@@H]1CC[C@@]2(OC1)O[C@H]1C[C@H]3[C@@H]4CC=C5C[C@@H](O[C@@H]6O[C@H](CO)[C@@H](O[C@@H]7O[C@@H](C)[C@H](O)[C@@H](O)[C@H]7O)[C@H](O)[C@H]6O)CC[C@]5(C)[C@H]4CC[C@]3(C)[C@H]1[C@@H]2C | 27.3 µM
23 | CC(=O)NCCO[C@H]1[C@H](O)[C@H](O)[C@@H](O[C@H]2[C@H](O)[C@@H](O[C@H]3O[C@H](C)[C@@H](O)[C@H](O)[C@@H]3O)[C@H](O[C@H]3CC[C@@]4(C)C(=CC[C@H]5[C@@H]6C[C@@H]7O[C@]8(CC[C@@H](C)CO8)[C@@H](C)[C@@H]7[C@@]6(C)CC[C@@H]54)C3)O[C@@H]2CO)O[C@@H]1C | 9.2 µM
24 | C[C@@H]1CC[C@@]2(OC1)O[C@H]1C[C@H]3[C@@H]4CC[C@H]5C[C@@H](O[C@@H]6O[C@H](CO)[C@@H](O[C@H]7O[C@H](C)[C@@H](O)[C@H](O)[C@@H]7O)[C@H](O)[C@H]6O[C@H]6O[C@H](C)[C@@H](O)[C@H](O)[C@@H]6O)CC[C@]5(C)[C@H]4CC[C@]3(C)[C@H]1[C@@H]2C | 3 µM
